The target in assay [1] is 5-hydroxytryptamine receptor 2A (Rattus norvegicus, UniProt P14842).
Assay [2] deals with Norepinephrine transporter (Rattus norvegicus, UniProt Q9JIA2).
The target of assay [3] is T1, Muscarinic acetylcholine receptor M2 (Rattus norvegicus, UniProt P10980).
T1 sequence (P10980 whole entry): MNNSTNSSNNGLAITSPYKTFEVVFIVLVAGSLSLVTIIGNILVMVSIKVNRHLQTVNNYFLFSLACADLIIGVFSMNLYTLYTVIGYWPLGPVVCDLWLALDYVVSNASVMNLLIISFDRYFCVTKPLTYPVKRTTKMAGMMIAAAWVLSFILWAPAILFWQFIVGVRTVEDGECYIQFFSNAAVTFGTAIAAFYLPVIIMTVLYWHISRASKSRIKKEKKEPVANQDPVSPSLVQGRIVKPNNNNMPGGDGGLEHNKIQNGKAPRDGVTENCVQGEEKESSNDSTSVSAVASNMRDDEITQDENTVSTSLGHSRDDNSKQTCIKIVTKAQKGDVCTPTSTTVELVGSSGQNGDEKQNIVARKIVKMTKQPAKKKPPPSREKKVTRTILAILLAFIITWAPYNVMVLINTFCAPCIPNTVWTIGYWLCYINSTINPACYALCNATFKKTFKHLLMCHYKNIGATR

Assay [4] concerns the target T2, Alpha-1A adrenergic receptor (Rattus norvegicus, UniProt P43140).
T2 sequence (P43140 whole entry): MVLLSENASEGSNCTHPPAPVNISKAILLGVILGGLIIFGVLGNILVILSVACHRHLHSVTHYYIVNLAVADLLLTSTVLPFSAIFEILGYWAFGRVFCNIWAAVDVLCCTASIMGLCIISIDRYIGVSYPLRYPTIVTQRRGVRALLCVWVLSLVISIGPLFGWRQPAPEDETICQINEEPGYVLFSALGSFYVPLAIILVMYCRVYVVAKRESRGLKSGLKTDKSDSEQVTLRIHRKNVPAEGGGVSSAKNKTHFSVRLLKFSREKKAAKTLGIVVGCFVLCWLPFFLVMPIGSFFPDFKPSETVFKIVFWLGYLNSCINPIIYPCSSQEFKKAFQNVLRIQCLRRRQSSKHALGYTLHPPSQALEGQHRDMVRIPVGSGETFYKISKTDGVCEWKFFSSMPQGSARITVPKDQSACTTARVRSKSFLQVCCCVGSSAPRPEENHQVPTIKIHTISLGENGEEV

Another assay deals with D(2) dopamine receptor (Rattus norvegicus, UniProt P61169).
D(2) dopamine receptor, sequence (P61169 whole entry): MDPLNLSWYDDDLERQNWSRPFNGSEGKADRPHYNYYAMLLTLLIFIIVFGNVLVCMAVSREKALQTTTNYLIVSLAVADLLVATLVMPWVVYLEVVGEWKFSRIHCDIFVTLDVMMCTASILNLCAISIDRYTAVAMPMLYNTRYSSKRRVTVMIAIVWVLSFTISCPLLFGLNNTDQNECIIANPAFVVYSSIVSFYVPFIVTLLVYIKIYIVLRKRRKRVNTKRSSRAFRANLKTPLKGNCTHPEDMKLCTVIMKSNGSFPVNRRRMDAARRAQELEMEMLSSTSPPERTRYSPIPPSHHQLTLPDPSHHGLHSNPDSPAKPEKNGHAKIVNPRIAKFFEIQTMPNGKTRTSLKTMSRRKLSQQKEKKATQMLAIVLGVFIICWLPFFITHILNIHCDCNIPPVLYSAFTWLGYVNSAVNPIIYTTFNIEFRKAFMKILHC
The target in assay [5] is Sodium-dependent dopamine transporter (Rattus norvegicus, UniProt P23977).
Sodium-dependent dopamine transporter, sequence (P23977 whole entry): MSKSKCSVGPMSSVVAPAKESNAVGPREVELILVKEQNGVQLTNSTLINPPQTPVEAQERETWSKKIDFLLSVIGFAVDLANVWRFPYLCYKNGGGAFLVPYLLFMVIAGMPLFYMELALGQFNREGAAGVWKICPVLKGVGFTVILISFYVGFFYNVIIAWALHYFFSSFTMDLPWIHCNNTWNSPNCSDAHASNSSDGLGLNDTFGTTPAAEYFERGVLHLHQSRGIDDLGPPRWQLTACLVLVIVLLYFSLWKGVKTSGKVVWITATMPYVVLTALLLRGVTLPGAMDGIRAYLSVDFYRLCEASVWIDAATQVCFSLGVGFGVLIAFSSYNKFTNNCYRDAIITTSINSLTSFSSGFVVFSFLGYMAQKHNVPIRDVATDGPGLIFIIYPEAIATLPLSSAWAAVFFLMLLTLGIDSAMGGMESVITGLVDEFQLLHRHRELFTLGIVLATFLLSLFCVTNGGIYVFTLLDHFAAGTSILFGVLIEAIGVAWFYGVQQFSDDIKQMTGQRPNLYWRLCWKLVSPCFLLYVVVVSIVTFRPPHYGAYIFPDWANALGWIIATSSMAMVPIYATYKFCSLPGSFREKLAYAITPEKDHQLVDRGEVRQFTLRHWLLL
A further assay addresses D(1A) dopamine receptor (Rattus norvegicus, UniProt P18901).

Usually Ki stands for a measure of affinity in units of concentration, obtained from inhibition or displacement. A high value points to lower affinity.

Where “and” joins values, the source holds several entries; their conditions need not be identical. Identical values can stand only once.

5-hydroxytryptamine receptor 2A, sequence (P14842 whole entry): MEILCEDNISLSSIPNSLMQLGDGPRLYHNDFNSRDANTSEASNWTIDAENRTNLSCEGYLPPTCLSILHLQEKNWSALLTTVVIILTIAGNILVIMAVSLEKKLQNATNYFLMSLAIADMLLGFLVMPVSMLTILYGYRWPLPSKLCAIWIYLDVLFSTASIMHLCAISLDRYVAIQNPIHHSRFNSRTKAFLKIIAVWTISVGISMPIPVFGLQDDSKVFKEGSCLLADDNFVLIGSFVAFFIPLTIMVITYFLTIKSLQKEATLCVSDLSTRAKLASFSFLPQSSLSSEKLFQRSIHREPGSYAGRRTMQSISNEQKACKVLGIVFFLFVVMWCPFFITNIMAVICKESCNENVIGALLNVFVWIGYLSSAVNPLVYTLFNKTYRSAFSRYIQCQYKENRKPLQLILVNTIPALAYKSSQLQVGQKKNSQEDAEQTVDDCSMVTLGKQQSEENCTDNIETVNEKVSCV
D(1A) dopamine receptor, sequence (P18901 whole entry): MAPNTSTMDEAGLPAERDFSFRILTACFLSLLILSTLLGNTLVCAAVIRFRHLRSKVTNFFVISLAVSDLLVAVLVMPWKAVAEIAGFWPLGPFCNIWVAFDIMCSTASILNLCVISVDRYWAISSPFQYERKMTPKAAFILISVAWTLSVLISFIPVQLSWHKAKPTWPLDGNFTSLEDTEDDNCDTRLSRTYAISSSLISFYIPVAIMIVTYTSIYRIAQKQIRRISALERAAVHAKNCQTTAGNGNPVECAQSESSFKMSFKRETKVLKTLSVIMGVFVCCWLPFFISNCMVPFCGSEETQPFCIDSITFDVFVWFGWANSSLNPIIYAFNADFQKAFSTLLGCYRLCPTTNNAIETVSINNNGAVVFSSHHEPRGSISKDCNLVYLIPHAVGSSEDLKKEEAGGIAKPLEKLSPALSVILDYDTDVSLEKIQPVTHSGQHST

Regarding `CNc1cc(OC)c(C(=O)NCCN(C)Cc2ccc(I)cc2)cc1Cl` [CAS_130377], the Ki in assay [1] was 1790 nM; in assay [2], 2720 nM; in assay [3] it was 110 nM; in assay [4], 62 nM; on D(2) dopamine receptor it was 0.13 nM and 0.215 nM; in assay [5], 209 nM. The molecule further came in with an inhibition constant (Ki) on D(1A) dopamine receptor of 1880 nM.

The record behind these values is BindingDB's records for doi:10.1016/0024-3205(89)90523-7 (Nida Addiction Research Center, 1989).
